Experimental data taken from patent US20240317744A1, “Bicyclic Ureas As Kinase Inhibitors” (Incyte Corporation, priority 2023, published 2024).
pIC50: −log10 of the molar value.

Assays:
[1] = molecular target: T1, pseudo-kinase domain (JH2, amino-acids 536-812) of human V617F mutant JAK2 (Homo sapiens, UniProt O60674, F794H/V617F/W659A/W777A); assay: JAK2 LanthaScreen JH2-V617F Binding Assay; conditions: JAK2 JH2-V617F 0.26 nM, 50 nM tracer, 1 hour at 25° C.; read-out: JH2 BIND V617F
T1 construct: pseudo-kinase domain (JH2, amino-acids 536-812 with 3 surface mutations W659A, W777A, F794H); His (C); purchased BPS Bioscience 79498; host or cells: baculovirus expression system
Description: Example C. JAK2 LanthaScreen JH2-V617F Binding Assay
JAK2 JH2-V617F binding assay utilizes pseudo-kinase domain (JH2, amino-acids 536-812 with 3 surface mutations W659A, W777A, F794H) of human V617F mutant JAK2 expressed as C-terminal His-Avi-tagged, biotinylated protein in a baculovirus expression system (BPS Bioscience, Catalog #79498). The assay was conducted in black 384-well polystyrene plates in a final reaction volume of 20 μL. JAK2 JH2-V617F (0.26 nM) was incubated with compounds (100 nL serially diluted in DMSO) in the presence of 50 nM Fluorescent JAK2-JH2 Tracer (MedChem Express Catalog #HY-102055) and 0.25 nM Streptavidin-Tb cryptate (Cisbio Part #610SATLB) in assay buffer (50 mM Tris, pH=7.5, 10 mM MgCl2, 0.01% Brij-35, 0.1% BSA, 1 mM EGTA, 5% Glycerol and 5 mM DTT). Non-specific binding was accessed in the presence of 2 mM ATP. After incubation for 1 hour at 25° C., LanthaScreen signals were read on a PHERAstar FS plate reader (BMG LABTECH). Data was analyzed with IDBS XLfit and GraphPad Prism 5.0 software using a four parameter dose response curve to determine IC50 for each compound.

[2] = molecular target: catalytic domain (JH1, amino acids 808-1132) of human JAK2 (Homo sapiens, UniProt O60674); assay: JAK2 HTRF Enzyme Activity Assay; type: biochemical; conditions: ATP 30 µM, 60 minutes at 25° C.; read-out: V617F ENZ 30 UM
Sequence of catalytic domain (JH1, amino acids 808-1132) of human JAK2 (O60674 808-1132 limits assumed): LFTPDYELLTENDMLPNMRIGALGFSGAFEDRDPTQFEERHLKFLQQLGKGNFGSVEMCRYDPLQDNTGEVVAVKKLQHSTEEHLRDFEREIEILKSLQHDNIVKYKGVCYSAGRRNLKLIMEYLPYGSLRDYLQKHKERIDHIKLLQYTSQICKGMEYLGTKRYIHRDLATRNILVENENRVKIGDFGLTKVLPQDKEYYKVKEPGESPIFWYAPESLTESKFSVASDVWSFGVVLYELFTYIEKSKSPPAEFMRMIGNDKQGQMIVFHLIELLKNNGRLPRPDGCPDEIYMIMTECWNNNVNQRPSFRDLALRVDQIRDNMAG

T1 sequence (O60674 536-812 V617F/W659A/W777A/F794H): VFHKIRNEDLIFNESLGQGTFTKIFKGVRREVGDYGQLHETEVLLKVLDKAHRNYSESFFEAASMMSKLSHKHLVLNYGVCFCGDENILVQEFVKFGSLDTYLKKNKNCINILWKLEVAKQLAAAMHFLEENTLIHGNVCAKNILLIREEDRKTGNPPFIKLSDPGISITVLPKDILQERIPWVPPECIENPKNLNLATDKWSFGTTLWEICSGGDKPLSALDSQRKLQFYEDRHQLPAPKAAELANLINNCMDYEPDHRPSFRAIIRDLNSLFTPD

SMILES	pIC50 [1]	pIC50 [2]
[2H]C1(NC(=O)OC)CC[C@@H](n2c(=O)n(C([2H])([2H])[2H])c3cnc(Nc4ccc5c(n4)c(-c4cnn(C(F)(F)F)c4)nn5CC(C)(C)O)cc32)C1 (single isomer, unassigned) [Example 124]	≥ 8.00	< 6.00
[2H]C1(NC(=O)OC)CC[C@@H](n2c(=O)n(C([2H])([2H])[2H])c3cnc(Nc4ccc5c(n4)c(-c4cnn(C(F)(F)F)c4)nn5CC(C)(C)O)cc32)C1 (single isomer, unassigned) [Example 125]	≥ 8.00	< 6.00
[2H]C([2H])([2H])n1c(=O)n([C@@H]2CC[C@@H](NC(=O)OC)C2)c2cc(Nc3ccc4c(n3)c(-c3cnn(C(F)(F)F)c3)cn4C3CCOCC3)ncc21 [Example 109, Methyl ((1R,3R)-3-(3-(methyl-d3)-2-oxo-6-((1-(tetrahydro-2H-pyran-4-yl)-3-(1-(trifluoromethyl)-1H-pyrazol-4-yl)-1H-pyrrolo[3,2-b]pyridin-5-yl)amino)-2,3-dihydro-1H-imidazo[4,5-c]pyridin-1-yl)cyclopentyl)carbamate]	≥ 8.00	< 6.00
[2H]C([2H])([2H])n1c(=O)n([C@@H]2CC[C@@H](NC(=O)OC)C2)c2cc(Nc3ccc4c(n3)c(-c3cnn(C(F)(F)F)c3)cn4CC(C)(C)O)ncc21 [Example 110, Methyl ((1R,3R)-3-(6-((1-(2-hydroxy-2-methylpropyl)-3-(1-(trifluoromethyl)-1H-pyrazol-4-yl)-1H-pyrrolo[3,2-b]pyridin-5-yl)amino)-3-(methyl-d3)-2-oxo-2,3-dihydro-1H-imidazo[4,5-c]pyridin-1-yl)cyclopentyl)carbamate]	≥ 8.00	< 6.00
[2H]C1(NC(=O)OC)CC[C@@H](n2c(=O)n(C([2H])([2H])[2H])c3cnc(Nc4ccc5c(n4)c(-c4cnn(C(F)(F)F)c4)cn5C4CCOCC4)cc32)C1 (stereo partly drawn) [Example 111, Methyl ((3R)-3-(3-(methyl-d3)-2-oxo-6-((1-(tetrahydro-2H-pyran-4-yl)-3-(1-(trifluoromethyl)-1H-pyrazol-4-yl)-1H-pyrrolo[3,2-b]pyridin-5-yl)amino)-2,3-dihydro-1H-imidazo[4,5-c]pyridin-1-yl)cyclopentyl-1-d)carbamate]	≥ 8.00	< 6.00
[2H]C1(NC(=O)OC)CC[C@@H](n2c(=O)n(C([2H])([2H])[2H])c3cnc(Nc4ccc5c(n4)c(-c4cnn(C(F)(F)F)c4)cn5C4([2H])CCOCC4)cc32)C1 (stereo partly drawn) [Example 112, Methyl ((3R)-3-(3-(methyl-d3)-2-oxo-6-((1-(tetrahydro-2H-pyran-4-yl-4-d)-3-(1-(trifluoromethyl)-1H-pyrazol-4-yl)-1H-pyrrolo[3,2-b]pyridin-5-yl)amino)-2,3-dihydro-1H-imidazo[4,5-c]pyridin-1-yl)cyclopentyl-1-d)carbamate]	≥ 8.00	< 6.00
[2H]C1(NC(=O)OC)CC[C@@H](n2c(=O)n(C([2H])([2H])[2H])c3cnc(Nc4ccc5c(n4)c(-c4cnn(C(F)(F)F)c4)cn5C4(C#N)CC4)cc32)C1 (stereo partly drawn) [Example 113, Methyl ((3R)-3-(6-((1-(1-cyanocyclopropyl)-3-(1-(trifluoromethyl)-1H-pyrazol-4-yl)-1H-pyrrolo[3,2-b]pyridin-5-yl)amino)-3-(methyl-d3)-2-oxo-2,3-dihydro-1H-imidazo[4,5-c]pyridin-1-yl)cyclopentyl-1-d)carbamate]	≥ 8.00	< 6.00
[2H]C([2H])([2H])n1c(=O)n([C@@H]2CC[C@](C)(NC(=O)C3CC3)C2)c2cc(Nc3ccc4nn([C@H]5C[C@@H](O)C5)c(-c5cnn(C(F)(F)F)c5)c4n3)ncc21 [Example 121, N-((1S,3R)-3-(6-((2-((1s,3s)-3-Hydroxycyclobutyl)-3-(1-(trifluoromethyl)-1H-pyrazol-4-yl)-2H-pyrazolo[4,3-b]pyridin-5-yl)amino)-3-(methyl-d3)-2-oxo-2,3-dihydro-1H-imidazo[4,5-c]pyridin-1-yl)-1-methylcyclopentyl)cyclopropanecarboxamide]	≥ 8.00	< 6.00
